The source of these data is patent US9067922B2, “Chemical compounds” (Pfizer Limited, priority 2013, dated 2015).

This assay deals with URAT-1 transporter (Homo sapiens (Human), UniProt Q96S37). The assay is described as follows: URAT-1 inhibitor activity: [14C]-uric acid uptake in CHO-URAT1(L)GFP#8 (CHO#8) cells, scintillation proximity. Format: cell-based. As to conditions: inhibition of [14C]-uric acid (30 nM) uptake into CHO#8 cells; compound 0 to 10 μM; 4 parameter logistic fit. The text has this: The nucleotide sequence for the long isoform of URAT1 (NM_144585) was C-terminally fused to that of enhanced green fluorescent protein (eGFP) (hereinafter referred to as URAT1(L)GFP). The combined sequence was codon-optimised and custom synthesized. The synthesized sequence was generated in pDONR221 Gateway entry vector (Invitrogen Life Technologies) prior to cloning in pLenti6.3/V5 Gateway destination vector (Invitrogen Life Technologies).
URAT-1 transporter, sequence (Q96S37 other isoform, or with tags, fused parts or gaps): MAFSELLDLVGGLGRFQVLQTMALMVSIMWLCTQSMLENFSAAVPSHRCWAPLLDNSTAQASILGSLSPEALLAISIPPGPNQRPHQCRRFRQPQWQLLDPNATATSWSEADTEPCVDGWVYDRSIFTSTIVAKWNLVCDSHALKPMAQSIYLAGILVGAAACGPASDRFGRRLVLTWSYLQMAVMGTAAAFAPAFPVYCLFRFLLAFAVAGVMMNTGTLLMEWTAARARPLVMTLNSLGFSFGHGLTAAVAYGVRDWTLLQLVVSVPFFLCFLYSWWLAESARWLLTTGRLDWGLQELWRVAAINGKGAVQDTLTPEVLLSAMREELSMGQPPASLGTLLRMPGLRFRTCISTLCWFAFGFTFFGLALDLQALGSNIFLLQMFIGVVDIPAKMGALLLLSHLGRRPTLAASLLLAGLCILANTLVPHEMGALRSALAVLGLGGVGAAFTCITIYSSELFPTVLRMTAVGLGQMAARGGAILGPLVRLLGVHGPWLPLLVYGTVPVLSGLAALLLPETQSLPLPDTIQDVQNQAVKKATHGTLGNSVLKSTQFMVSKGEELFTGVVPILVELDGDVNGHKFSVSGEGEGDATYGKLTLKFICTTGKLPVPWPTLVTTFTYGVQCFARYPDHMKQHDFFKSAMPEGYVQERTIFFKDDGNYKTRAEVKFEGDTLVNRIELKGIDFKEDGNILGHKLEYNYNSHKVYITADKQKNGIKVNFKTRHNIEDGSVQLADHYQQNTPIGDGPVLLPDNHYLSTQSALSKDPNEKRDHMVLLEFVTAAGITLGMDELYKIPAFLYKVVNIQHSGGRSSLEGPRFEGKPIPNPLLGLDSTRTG
Lentiviral particles were generated according to ViraPower HiPerform expression system procedure (Invitrogen Life Technologies) and used to transduce CHO cells. […] The clonal pools were sorted using fluorescence-activated cell sorting (FACS) on the basis of GFP expression with the gating set at the top 50% of expression into single cells which were subsequently expanded to generate clonal lines. […] This cell line was used for all screening activities and is referred to as CHO-URAT1(L)GFP#8 or CHO#8.
The potency of the compounds of formula (I) as inhibitors of the URAT-1 transporter was determined as follows.
CHO#8 cells were cultured in cell line maintenance flasks in medium consisting of Dulbecco's modified Eagle medium (DMEM) with high glucose and sodium pyruvate (4.5 g of glucose per liter, Invitrogen Life Technologies), supplemented with heat-inactivated foetal bovine serum (FBC, 10% v/v), 1×NEAA (non-essential amino acids) and blasticidin (10 μg/ml). Cultures were grown in 175 cm^2 tissue culture flasks in a humidified incubator at approximately 37° C. in approximately 95% air/5% CO2. Near confluent CHO#8 cell cultures were harvested by trypsinisation, re-suspended in culture medium and the process was repeated once or twice weekly to provide sufficient cells for use.
Assay ready flasks were generated by the same method, except the cells were not cultured in blasticidin.
Assay ready frozen cells were generated by freezing 40,000,000 cells in 1 ml of FBS (without blasticidin) containing 10% DMSO per vial. One vial was sufficient for 5 assay plates. Each vial was thawed rapidly to 37° C., washed and re-suspended in pre-warmed culture medium for seeding onto assay plates.
CHO#8 cells were seeded onto Cytostar™ 96-well plates at a density of […]. The cells were cultured for 1 day at approximately 37° C. in a humidified incubator containing approximately 5% CO2 in air. After approximately 24 hours culture, cells were used for uptake experiments.
On the day of assay, culture medium was removed from the wells and the cells were washed once with 50 μL of chloride-containing buffer (136.7 mM NaCl, 5.36 mM KCl, 0.952 mM CaCl2, 0.441 mM KH2PO4, 0.812 mM MgSO4, 5.6 mM D-glucose, 0.383 mM Na2HPO4.2H2O, 10 mM HEPES, pH 7.4 with NaOH). The cells were pre-incubated with another 50 μL of chloride-containing buffer for one hour at approximately 37° C. in a humidified incubator containing approximately 5% CO2 in air.
Assay compound plates were prepared by diluting the compounds of formula (I) with chloride-free buffer (125 mM Na-gluconate, 4.8 mM K-gluconate, 1.3 mM Ca-gluconate, 1.2 mM KH2PO4, 1.2 mM MgSO4, 5.6 mM D-glucose, 25 mM HEPES, pH 7.4 with NaOH) in 100% DMSO to a final concentration of 1% DMSO. [^14C]-Uric Uric acid working stock was made by addition of radiolabeled compound to a final concentration of 120 nM in chloride-free buffer. In all wells, the final assay concentration of solvent (DMSO) was 0.25%; the final assay concentration of [^14C]-uric acid was 30 nM in chloride-free buffer and the final compound of formula (I) concentrations ranged from 0 to 10 μM.
After pre-incubation, cells were washed with 50 μL of chloride-free buffer and another 50 μL of chloride-free buffer was added.
In general terms: In a scintillation proximity assay essentially only radioactivity close to the scintillant gives light.

In general, IC50 refers to the midpoint of a concentration-inhibition curve. The compound `N#Cc1cc(Oc2ccc(S(=O)(=O)Nc3ccc(F)cn3)cc2C#N)ccc1F` [Example 19, 3-cyano-4-(3-cyano-4-fluorophenoxy)-N-(5-fluoropyridin-2-yl)benzenesulfonamide] registered a concentration for half-maximal inhibition (IC50) of 57 nM.
Consider `N#Cc1cc(S(=O)(=O)Nc2ccc(F)cn2)ccc1Oc1ccc(Cl)cc1` [Example 20, 4-(4-chlorophenoxy)-3-cyano-N-(5-fluoropyridin-2-yl)benzenesulfonamide], for which 88 nM corresponded to half-maximal inhibition (IC50).
`Cc1ccc(F)cc1Oc1ccc(S(=O)(=O)Nc2ccc(F)cn2)cc1C#N` [Example 21, 3-cyano-4-(5-fluoro-2-methylphenoxy)-N-(5-fluoropyridin-2-yl)benzenesulfonamide]: the midpoint of inhibition, the IC50, lay at 84 nM.
Regarding `Cc1ccc(Oc2ccc(S(=O)(=O)Nc3ccc(F)cn3)cc2C#N)cc1Cl` [Example 22, 4-(3-chloro-4-methylphenoxy)-3-cyano-N-(5-fluoropyridin-2-yl)benzenesulfonamide], the concentration for half-maximal inhibition (IC50) worked out at 209 nM.
On to `N#Cc1cc(S(=O)(=O)Nc2ccc(F)cn2)ccc1Oc1cccc(C(F)(F)F)c1` [Example 23, 3-cyano-N-(5-fluoropyridin-2-yl)-4-[3-(trifluoromethyl)phenoxy]benzenesulfonamide], for which the IC50 is greater than 10000 nM.
The compound `N#Cc1cc(S(=O)(=O)Nc2ccc(F)cn2)ccc1Oc1cccc(Cl)c1F` [Example 24, 4-(3-chloro-2-fluorophenoxy)-3-cyano-N-(5-fluoropyridin-2-yl)benzenesulfonamide] gave an IC50 of 135 nM.
`N#Cc1cc(S(=O)(=O)Nc2ccc(F)cn2)ccc1Oc1cccc(Cl)c1` [Example 25, 4-(3-chlorophenoxy)-3-cyano-N-(5-fluoropyridin-2-yl)benzenesulfonamide] showed an IC50 of 86 nM.
Take `Cc1cc(Cl)c(Oc2ccc(S(=O)(=O)Nc3ccc(F)cn3)cc2C#N)cc1C#N` [Example 26, 4-(2-chloro-5-cyano-4-methylphenoxy)-3-cyano-N-(5-fluoropyridin-2-yl)benzenesulfonamide]: the half-maximal inhibitory concentration (IC50) turned out to be 57 nM.
Consider `N#Cc1cc(S(=O)(=O)Nc2ccc(F)cn2)ccc1Oc1ccccc1OC(F)(F)F` [Example 27, 3-cyano-N-(5-fluoropyridin-2-yl)-4-[2-(trifluoromethoxy)phenoxy]benzenesulfonamide], for which half-maximal inhibition (IC50) required 274 nM.
`N#Cc1cc(S(=O)(=O)Nc2ccc(F)cn2)ccc1Oc1cc(F)cc(Cl)c1` [Example 28, 4-(3-chloro-5-fluorophenoxy)-3-cyano-N-(5-fluoropyridin-2-yl)benzenesulfonamide] displayed an IC50 of 92 nM.
On to `N#Cc1cc(S(=O)(=O)Nc2ccc(F)cn2)ccc1Oc1cccc(C(F)(F)F)c1F` [Example 29, 3-cyano-N-(5-fluoropyridin-2-yl)-4-[2-fluoro-3-(trifluoromethyl)phenoxy]benzenesulfonamide], for which the IC50 is greater than 10000 nM.
As to `N#Cc1ccc(Oc2ccc(S(=O)(=O)Nc3ccc(F)cn3)cc2C#N)c(Cl)c1` [Example 30, 4-(2-chloro-4-cyanophenoxy)-3-cyano-N-(5-fluoropyridin-2-yl)benzenesulfonamide], the half-maximal inhibitory concentration (IC50) came out at 183 nM.
For `N#Cc1cc(S(=O)(=O)Nc2ccc(F)cn2)ccc1Oc1ccc(F)cc1Cl` [Example 31, 4-(2-chloro-4-fluorophenoxy)-3-cyano-N-(5-fluoropyridin-2-yl)benzenesulfonamide], the half-inhibitory concentration (IC50) was 78 nM.
As for `N#Cc1cc(S(=O)(=O)Nc2ccc(F)cn2)ccc1Oc1cc(F)cc(F)c1Cl` [Example 32, 4-(2-chloro-3,5-difluorophenoxy)-3-cyano-N-(5-fluoropyridin-2-yl)benzenesulfonamide], the figure is 212 nM.
For the compound `Cc1cc(Oc2ccc(S(=O)(=O)Nc3ccc(F)cn3)cc2C#N)ccc1Cl` [Example 34, 4-(4-chloro-3-methylphenoxy)-3-cyano-N-(5-fluoropyridin-2-yl)benzenesulfonamide], inhibition was half-maximal at 80 nM (IC50).
The result for `N#Cc1cc(S(=O)(=O)Nc2ccc(F)cn2)ccc1Oc1ccc(OC(F)(F)F)cc1` [Example 35, 3-cyano-N-(5-fluoropyridin-2-yl)-4-[4-(trifluoromethoxy)phenoxy]benzenesulfonamide] reads greater than 10000 nM.
Consider `N#Cc1cc(F)ccc1Oc1ccc(S(=O)(=O)Nc2ccc(F)cn2)cc1C#N` [Example 36, 3-cyano-4-(2-cyano-4-fluorophenoxy)-N-(5-fluoropyridin-2-yl)benzenesulfonamide], for which inhibition was half-maximal at 241 nM (IC50).
The result for `N#Cc1cc(S(=O)(=O)Nc2ccc(F)cn2)ccc1Oc1ccc(F)c(Cl)c1Cl` [Example 38, 3-cyano-4-(2,3-dichloro-4-fluorophenoxy)-N-(5-fluoropyridin-2-yl)benzenesulfonamide] reads 55 nM; that for `Cc1ccc(Cl)cc1Oc1ccc(S(=O)(=O)Nc2ccc(F)cn2)cc1C#N` [Example 39, 4-(5-chloro-2-methylphenoxy)-3-cyano-N-(5-fluoropyridin-2-yl)benzenesulfonamide], 80 nM; that for `N#Cc1cc(S(=O)(=O)Nc2ccc(F)cn2)ccc1Oc1cc(F)cc(C(F)(F)F)c1` [Example 40, 3-cyano-N-(5-fluoropyridin-2-yl)-4-[3-fluoro-5-(trifluoromethyl)phenoxy]benzenesulfonamide], 988 nM.
As for `N#Cc1cc(S(=O)(=O)Nc2ccc(F)cn2)ccc1Oc1ccccc1F` [Example 41, 3-cyano-4-(2-fluorophenoxy)-N-(5-fluoropyridin-2-yl)benzenesulfonamide], the IC50 is 162 nM.
The compound `Cc1ccc(Oc2ccc(S(=O)(=O)Nc3ccc(F)cn3)cc2C#N)c(Cl)c1` [Example 42, 4-(2-chloro-4-methylphenoxy)-3-cyano-N-(5-fluoropyridin-2-yl)benzenesulfonamide] yielded an IC50 of 383 nM.
On to `N#Cc1ccc(Oc2ccc(S(=O)(=O)Nc3ccc(F)cn3)cc2C#N)cc1F` [Example 43, 3-cyano-4-(4-cyano-3-fluorophenoxy)-N-(5-fluoropyridin-2-yl)benzenesulfonamide], for which the IC50 was found to be 53 nM.
The result for `COc1ccc(Cl)c(Oc2ccc(S(=O)(=O)Nc3ccc(F)cn3)cc2C#N)c1` [Example 44, 4-(2-chloro-5-methoxyphenoxy)-3-cyano-N-(5-fluoropyridin-2-yl)benzenesulfonamide] reads 167 nM; that for `N#Cc1cc(Cl)ccc1Oc1ccc(S(=O)(=O)Nc2ccc(F)cn2)cc1C#N` [Example 45, 4-(4-chloro-2-cyanophenoxy)-3-cyano-N-(5-fluoropyridin-2-yl)benzenesulfonamide], 174 nM; that for `CCc1ccccc1Oc1ccc(S(=O)(=O)Nc2ccc(F)cn2)cc1C#N` [Example 46, 3-cyano-4-(2-ethylphenoxy)-N-(5-fluoropyridin-2-yl)benzenesulfonamide], 107 nM.
Turning to `N#Cc1cc(S(=O)(=O)Nc2ccc(F)cn2)ccc1Oc1ccc(Cl)cc1F` [Example 47, 4-(4-chloro-2-fluorophenoxy)-3-cyano-N-(5-fluoropyridin-2-yl)benzenesulfonamide], inhibition was half-maximal at 50 nM (IC50).
As to `N#Cc1cc(S(=O)(=O)Nc2ccc(F)cn2)ccc1Oc1ccc(F)c(C(F)(F)F)c1` [Example 48, 3-cyano-N-(5-fluoropyridin-2-yl)-4-[4-fluoro-3-(trifluoromethyl)phenoxy]benzenesulfonamide], the IC50 came out at 683 nM.
The result for `CC(C)c1ccccc1Oc1ccc(S(=O)(=O)Nc2ccc(F)cn2)cc1C#N` [Example 49, 3-cyano-N-(5-fluoropyridin-2-yl)-4-[2-(propan-2-yl)phenoxy]benzenesulfonamide] reads greater than 1380 nM; that for `CCc1ccc(Oc2ccc(S(=O)(=O)Nc3ccc(F)cn3)cc2C#N)cc1` [Example 50, 3-cyano-4-(4-ethylphenoxy)-N-(5-fluoropyridin-2-yl)benzenesulfonamide], greater than 10000 nM.
